Measured values: patent US10894788B2, “Inhibitors of cyclin-dependent kinases” (Kinnate Biopharma Inc., priority 2018, dated 2021)

Columns and labels:
CDK12 wt/CycK = CDK12 wt/CycK (Homo sapiens (Human), UniProt Q9NYV4); assay: Radiometric protein kinase assay (33PanQinase Activity Assay), Assay Condition A (thiol containing conditions); assay type: biochemical; settings: thiol containing conditions (1.2 mM DTT), ATP 0.3 μM; read-out: CDK12 IC50 Condition A
Outline: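 Recombinant human kinase incubated with [33P]ATP, substrate and compound (10 concentrations, 1×10^−04M to 3×10^−09M, singlicate, 1% DMSO) under thiol-containing buffer conditions, 60 min at 30 °C. 33Pi incorporation counted by scintillation; residual activity normalised to no-inhibitor and no-kinase controls, IC50 derived.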

CDK12 = CDK12 (Homo sapiens (Human), UniProt Q9NYV4); assay: Radiometric protein kinase assay (33PanQinase Activity Assay), Assay Condition B (thiol-free conditions); assay type: biochemical; settings: thiol-free conditions (1 mM TCEP, glutathione removed)
Chain of CDK12 (Q9NYV4 whole entry): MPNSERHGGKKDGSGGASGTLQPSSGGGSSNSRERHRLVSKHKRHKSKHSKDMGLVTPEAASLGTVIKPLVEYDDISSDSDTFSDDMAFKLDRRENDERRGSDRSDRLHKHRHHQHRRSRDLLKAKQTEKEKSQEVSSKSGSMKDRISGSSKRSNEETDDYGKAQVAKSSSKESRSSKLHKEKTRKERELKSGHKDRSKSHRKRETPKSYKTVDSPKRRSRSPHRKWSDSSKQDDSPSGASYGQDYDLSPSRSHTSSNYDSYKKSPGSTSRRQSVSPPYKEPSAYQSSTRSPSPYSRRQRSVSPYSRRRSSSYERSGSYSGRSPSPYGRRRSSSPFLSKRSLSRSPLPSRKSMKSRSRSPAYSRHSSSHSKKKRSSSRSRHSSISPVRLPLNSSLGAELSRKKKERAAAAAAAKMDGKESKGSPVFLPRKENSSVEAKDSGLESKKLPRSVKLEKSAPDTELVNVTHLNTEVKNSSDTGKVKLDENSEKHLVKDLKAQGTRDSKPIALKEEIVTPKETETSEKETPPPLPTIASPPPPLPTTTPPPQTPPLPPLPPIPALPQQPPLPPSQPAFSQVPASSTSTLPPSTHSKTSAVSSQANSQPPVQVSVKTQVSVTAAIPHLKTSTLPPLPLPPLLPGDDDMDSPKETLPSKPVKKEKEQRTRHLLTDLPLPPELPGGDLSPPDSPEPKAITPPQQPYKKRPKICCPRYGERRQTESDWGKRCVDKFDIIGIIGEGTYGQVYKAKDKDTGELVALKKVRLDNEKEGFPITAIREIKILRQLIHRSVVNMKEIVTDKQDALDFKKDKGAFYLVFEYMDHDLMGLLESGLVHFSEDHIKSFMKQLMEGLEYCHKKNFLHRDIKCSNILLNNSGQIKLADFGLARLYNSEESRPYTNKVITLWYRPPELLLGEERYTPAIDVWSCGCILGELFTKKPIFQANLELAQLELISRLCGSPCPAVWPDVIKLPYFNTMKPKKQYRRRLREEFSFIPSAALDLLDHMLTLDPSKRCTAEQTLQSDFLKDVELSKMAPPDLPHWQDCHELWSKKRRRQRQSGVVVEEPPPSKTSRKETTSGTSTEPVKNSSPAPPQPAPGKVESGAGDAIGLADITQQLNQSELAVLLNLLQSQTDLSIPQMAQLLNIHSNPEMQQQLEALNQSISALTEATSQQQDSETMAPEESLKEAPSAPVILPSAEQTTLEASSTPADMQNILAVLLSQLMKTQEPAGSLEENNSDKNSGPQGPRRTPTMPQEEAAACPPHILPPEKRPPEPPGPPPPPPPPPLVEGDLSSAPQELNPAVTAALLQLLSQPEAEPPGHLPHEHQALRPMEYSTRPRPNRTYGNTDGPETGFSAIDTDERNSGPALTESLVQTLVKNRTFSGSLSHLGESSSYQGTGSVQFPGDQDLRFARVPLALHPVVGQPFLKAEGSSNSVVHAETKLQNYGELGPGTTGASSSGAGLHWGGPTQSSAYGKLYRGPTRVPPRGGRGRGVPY
Chain of CDK12 (O75909 whole entry partner): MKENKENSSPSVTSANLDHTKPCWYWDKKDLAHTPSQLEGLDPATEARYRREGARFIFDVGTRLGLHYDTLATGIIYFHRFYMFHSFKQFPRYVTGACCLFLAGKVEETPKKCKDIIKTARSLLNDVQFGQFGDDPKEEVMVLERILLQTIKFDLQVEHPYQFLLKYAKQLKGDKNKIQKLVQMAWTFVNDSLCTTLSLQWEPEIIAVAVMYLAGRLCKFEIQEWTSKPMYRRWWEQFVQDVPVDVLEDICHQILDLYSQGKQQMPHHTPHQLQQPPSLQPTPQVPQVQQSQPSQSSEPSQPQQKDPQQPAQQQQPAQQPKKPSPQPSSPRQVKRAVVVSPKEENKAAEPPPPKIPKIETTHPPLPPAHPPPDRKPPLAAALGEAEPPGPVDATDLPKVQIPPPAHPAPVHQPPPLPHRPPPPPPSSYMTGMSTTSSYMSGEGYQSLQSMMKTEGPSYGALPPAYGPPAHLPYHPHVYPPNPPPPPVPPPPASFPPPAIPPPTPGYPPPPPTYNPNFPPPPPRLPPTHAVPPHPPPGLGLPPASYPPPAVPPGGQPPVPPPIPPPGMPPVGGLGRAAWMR
Method: Example 2—Assay Condition B (Thiol-Free Conditions)
The IC50 profile of compounds was determined using one protein kinase in a customized, thiol free assay. […] Prior to testing, the 1×10^−03 M stock solutions in column 2 of the master plates were subjected to a serial, semi-logarithmic dilution using 100% DMSO as a solvent. […] Column 1 and 7 were filled with 100% DMSO as controls. Subsequently, 2×10 microliter from each well of the serial diluted copy plates were aliquoted with a 96 channel pipettor into two identical sets of “compound dilution plates”. All plates were barcoded for automated identification and tracking purposes. […] All compounds were stored as powder until being solubilized in DMSO. Solubilized compounds were stored as 1×10^−02 M/100% DMSO stock solutions. Prior to the assay process, 90 microliters of H2O were added to each well of a set of compound dilution plates. To minimize potential precipitation, the H2O was added to each plate only a few minutes before the transfer of the compound solutions into the assay plates. Each plate was shaken thoroughly, resulting in compound dilution plates with a final of 10% DMSO. For each assay, 5 microliters of solution from each well of the compound dilution plates/10% DMSO were transferred into the assay plate. The final volume of the assay was 50 μl. All compounds were tested at 10 final assay concentrations in the range from 1×10^−05 M to 3×10^−10 M, in singlicate. The final DMSO concentration in the reaction cocktails was 1% in all cases. A radiometric protein kinase assay (33PanQinase® Activity Assay) was used for measuring the kinase activity of the protein kinase. All kinase assays were performed in 96-well FlashPlates™ from PerkinElmer (Boston, Mass., USA) in a 50 microliter reaction volume. The reaction cocktail was pipetted in four steps in the following order: 20 microliter of assay buffer (standard buffer)·5 microliter of ATP solution (in H2O)·5 microliter of test compound (in 10% DMSO)·20 microliter enzyme/substrate mix. […] For all experiments labeled as “Thiol-free”, all glutathione was exchanged from protein preparations so as to be removed from the assay and final buffer conditions contained no thiol-containing reagents. This was done so there would be no interference with the key cysteines in the proteins of interest.
For data analysis, the median value of the counts in column 1 (n=8) of each assay plate was defined as “low control”. This value reflects unspecific binding of radioactivity to the plate in the absence of a protein kinase but in the presence of the substrate. The median value of the counts in column 7 of each assay plate (n=8) was taken as the “high control”, i.e. full activity in the absence of any inhibitor. The difference between high and low control was taken as 100% activity. As part of the data evaluation the low control value from a particular plate was subtracted from the high control value as well as from all 80 “compound values” of the corresponding plate. The residual activity (in %) for each well of a particular plate was calculated by using the following formula: Res. Activity (%)=100×[(cpm of compound−low control)/(high control−low control)]
The residual activities for each concentration and the compound IC50 values were calculated using Quattro Workflow V3.1.1 (Quattro Research GmbH, Munich, Germany; www.quattro-research.com). […] The fitting method used was a least-squares fit. As a parameter for assay quality, the Z′-factor (Zhang et al., J. Biomol. Screen. 2: 67-73, 1999) for the low and high controls of each assay plate (n=8) was used. ProQinase's criterion for repetition of an assay plate is a Z′-factor below 0.4 (Iversen et al., J. Biomol. Screen. 3: 247-252, 2006).

Chain of CDK12 wt/CycK (Q9NYV4 whole entry): as the sequence (Q9NYV4 whole entry) above
Chain of CDK12 wt/CycK (O75909 whole entry partner): as the sequence (O75909 whole entry partner) above

| Compound | IC50 (CDK12 wt/CycK) | IC50 (CDK12) |
| --- | --- | --- |
| CCC(=O)Nc1ccc(C(=O)N2CC[C@@H](Nc3ncc(Br)c(OC)n3)C2)cc1 [Example 14, (R)—N-(4-(3-((5-bromo-4-methoxypyrimidin-2-yl)amino)pyrrolidine-1-carbonyl)phenyl)propionamide] | < 100 nM | < 100 nM |
| CCC(=O)Nc1ccc(C(=O)N2CC[C@@H](Nc3ncc(Br)cn3)C2)cc1 [Example 17, (R)—N-(4-(3-((5-bromopyrimidin-2-yl)amino)pyrrolidine-1-carbonyl)phenyl)propionamide] | 100 to 1000 nM | 100 to 1000 nM |
| C=CC(=O)Nc1ccc(C(=O)N2CC[C@@H](Nc3ncc(Br)cn3)C2)cc1 [Example 19, (R)—N-(4-(3-((5-bromopyrimidin-2-yl)amino)pyrrolidine-1-carbonyl)phenyl)acrylamide] | < 100 nM | < 100 nM |
| C=CC(=O)Nc1ccc(C(=O)N2CC[C@@H](Nc3ncc(Br)c(OC)n3)C2)cc1 [Example 20, (R)—N-(4-(3-((5-bromo-4-methoxypyrimidin-2-yl)amino)pyrrolidine-1-carbonyl)phenyl)acrylamide] | < 100 nM | < 100 nM |
| C=CC(=O)N(C)c1ccc(C(=O)N2CC[C@@H](Nc3ncc(Cl)c(OC)n3)C2)cc1 [Example 25, (R)—N-(4-(3-((5-chloro-4-methoxypyrimidin-2-yl)amino)pyrrolidine-1-carbonyl)phenyl)-N-methylacrylamide] | < 100 nM | < 100 nM |
| C=CC(=O)Nc1ccc(C(=O)N2CC[C@@H](Nc3ncc(Cl)c(OC)n3)C2)cc1C [Example 26, (R)—N-(4-(3-((5-chloro-4-methoxypyrimidin-2-yl)amino)pyrrolidine-1-carbonyl)-2-methylphenyl)acrylamide] | < 100 nM | < 100 nM |
| C=CC(=O)N(C)c1ccc(C(=O)N2CC[C@@H](Nc3ncc(Cl)cn3)C2)cc1 [Example 28, (R)—N-(4-(3-((5-chloropyrimidin-2-yl)amino)pyrrolidine-1-carbonyl)phenyl)-N-methylacrylamide] | 100 to 1000 nM | 100 to 1000 nM |
| C=CC(=O)Nc1ccc(C(=O)N2CC[C@@H](Nc3ncc(Cl)cn3)C2)cc1C [Example 29, (R)—N-(4-(3-((5-chloropyrimidin-2-yl)amino)pyrrolidine-1-carbonyl)-2-methylphenyl)acrylamide] | 100 to 1000 nM | < 100 nM |
| C=CC(=O)Nc1ccc(C(=O)N2CC[C@@H](Nc3ncc(Cl)c(OC)n3)C2)cc1 [Example 47, (R)—N-(4-(3-((5-chloro-4-methoxypyrimidin-2-yl)amino)pyrrolidine-1-carbonyl)phenyl)acrylamide] | < 100 nM | < 100 nM |
| C=CC(=O)Nc1ccc(C(=O)N2CC[C@@H](Nc3ncc(Cl)c(C)n3)C2)cc1 [Example 52, (R)—N-(4-(3-((5-chloro-4-methylpyrimidin-2-yl)amino)pyrrolidine-1-carbonyl)phenyl)acrylamide] | 100 to 1000 nM | < 100 nM |
| C=CC(=O)Nc1ccc(C(=O)N2CC[C@@H](Nc3cnc(Cl)cn3)C2)cc1 [Example 53, (R)—N-(4-(3-((5-chloropyrazin-2-yl)amino)pyrrolidine-1-carbonyl)phenyl)acrylamide] | 100 to 1000 nM | 100 to 1000 nM |
| C=CC(=O)Nc1ccc(C(=O)N2CC[C@@H](Nc3cc(OC)c(Cl)cn3)C2)cc1 [Example 54, (R)—N-(4-(3-((5-chloro-4-methoxypyridin-2-yl)amino)pyrrolidine-1-carbonyl)phenyl)acrylamide] | < 100 nM | < 100 nM |
| C=CC(=O)Nc1ccc(C(=O)N2CC[C@@H](Nc3cc(C)c(Cl)cn3)C2)cc1 [Example 55, (R)—N-(4-(3-((5-chloro-4-methylpyridin-2-yl)amino)pyrrolidine-1-carbonyl)phenyl)acrylamide] | 100 to 1000 nM | < 100 nM |
| C=CC(=O)Nc1ccc(C(=O)N2CC[C@@H](Nc3ncc(C4CC4)cn3)C2)cc1 [Example 58, (R)—N-(4-(3-((5-cyclopropylpyrimidin-2-yl)amino)pyrrolidine-1-carbonyl)phenyl)acrylamide] | 100 to 1000 nM | < 100 nM |
| C=CC(=O)Nc1ccc(C(=O)N2CC[C@@H](Nc3ncc(F)c(OC)n3)C2)cc1 [Example 59, (R)—N-(4-(3-((5-fluoro-4-methoxypyrimidin-2-yl)amino)pyrrolidine-1-carbonyl)phenyl)acrylamide] | 1000 to 10000 nM | 100 to 1000 nM |
| C=CC(=O)Nc1ccc(C(=O)N2CC[C@@H](Nc3ncc(Cl)c(NC)n3)C2)cc1 [Example 62, (R)—N-(4-(3-((5-chloro-4-(methylamino)pyrimidin-2-yl)amino)pyrrolidine-1-carbonyl)phenyl)acrylamide] | < 100 nM | < 100 nM |
| C=CC(=O)Nc1ccc(C(=O)N2CC[C@@H](Nc3ncc(Br)cn3)C2)cc1C [Example 76, (R)—N-(4-(3-((5-bromopyrimidin-2-yl)amino)pyrrolidine-1-carbonyl)-2-methylphenyl)acrylamide] |  | < 100 nM |
| C=CC(=O)Nc1ccc(C(=O)N2CC[C@@H](Nc3ncc(Cl)c(OC)n3)C2)cc1N1CCN(C)CC1 [Example 78, (R)—N-(4-(3-((5-chloro-4-methoxypyrimidin-2-yl)amino)pyrrolidine-1-carbonyl)-2-(4-methylpiperazin-1-yl)phenyl)acrylamide] |  | < 100 nM |
| C=CC(=O)Nc1ccc(C(=O)N2CC[C@@H](Nc3ncc(C(F)(F)F)cn3)C2)cc1C [Example 79, (R)—N-(2-methyl-4-(3-((5-(trifluoromethyl)pyrimidin-2-yl)amino)pyrrolidine-1-carbonyl)phenyl)acrylamide] |  | < 100 nM |
| C=CC(=O)Nc1ccc(C(=O)N2CC[C@@H](Nc3ncc(Cl)c(C)n3)C2)cc1C [Example 80, (R)—N-(4-(3-((5-chloro-4-methylpyrimidin-2-yl)amino)pyrrolidine-1-carbonyl)-2-methylphenyl)acrylamide] |  | 100 to 1000 nM |
| C=CC(=O)Nc1ccc(C(=O)N2CC[C@@H](Nc3ncc(C)c(OC4CC4)n3)C2)cc1 [Example 81, (R)—N-(4-(3-((4-cyclopropoxy-5-methylpyrimidin-2-yl)amino)pyrrolidine-1-carbonyl)phenyl)acrylamide] |  | 100 to 1000 nM |
| C=CC(=O)Nc1ccc(C(=O)N2CC[C@@H](Nc3ncc(Cl)c(OC)n3)C2)cc1-c1cnn(C)c1 [Example 82, (R)—N-(4-(3-((5-chloro-4-methoxypyrimidin-2-yl)amino)pyrrolidine-1-carbonyl)-2-(1-methyl-1H-pyrazol-4-yl)phenyl)acrylamide] |  | 100 to 1000 nM |
| C=C(CC)C(=O)Nc1ccc(C(=O)N2CC[C@@H](Nc3ncc(Cl)cn3)C2)cc1 [Example 83, (R)—N-(4-(3-((5-chloropyrimidin-2-yl)amino)pyrrolidine-1-carbonyl)phenyl)-2-methylenebutanamide] |  | 100 to 1000 nM |
| C=CS(=O)(=O)Nc1ccc(C(=O)N2CC[C@@H](Nc3ncc(Cl)cn3)C2)cc1 [Example 84, (R)—N-(4-(3-((5-chloropyrimidin-2-yl)amino)pyrrolidine-1-carbonyl)phenyl)ethenesulfonamide] |  | 100 to 1000 nM |
| C=CC(=O)Nc1ccc(C(=O)N2CC[C@@H](Nc3ccc(C4CC4)cn3)C2)cc1 [Example 85, (R)—N-(4-(3-((5-cyclopropylpyridin-2-yl)amino)pyrrolidine-1-carbonyl)phenyl)acrylamide] |  | 100 to 1000 nM |
| C#Cc1cnc(N[C@@H]2CCN(C(=O)c3ccc(N(C)C(=O)C=C)cc3)C2)nc1 [Example 113, (R)—N-(4-(3-((5-ethynylpyrimidin-2-yl)amino)pyrrolidine-1-carbonyl)phenyl)-N-methylacrylamide] |  | 100 to 1000 nM |
